Reference: patent US20230203043A1, “NOVEL IMIDAZOPYRAZINE DERIVATIVES” (Hoffmann-La Roche Inc., priority 2020, published 2023)
Where a name gives a salt, the structure may show the parent alone.

Each compound was assayed on Acinetobacter baumannii ATCC17961 (assay: Antimicrobial susceptibility testing: 90% growth inhibitory concentration (IC90) determination in Iso-Sensitest broth, OD600 growth). Settings: Acinetobacter baumannii, ATCC17961, 16 h, read-out: A. baumannii ATCC 17961 IC90 (uM), strain ATCC 17961, OD600 growth over 16 h.
Assay type: cell-based
How it was run: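 Growth monitored at 600 nm every 20 min for 16 h at 35±2 °C, inoculum ~5×10^(5) CFU/ml in Iso-Sensitest medium. Compounds in 10-point twofold series, e.g. 50 to 0.097 μM final; 90% inhibitory concentration taken from log-phase growth.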

Structure (SMILES)	IC90
Cc1cc(Nc2nccn3c(-c4c[nH]nc4C(F)(F)F)cnc23)ccc1C(=O)N1CCN(C(=O)[C@@H]2CCNC[C@@H]2O)CC1 [Example 461, formic acid; [4-[(3R,4R)-3-hydroxypiperidine-4-carbonyl]piperazin-1-yl]-[2-methyl-4-[[3-[3-(trifluoromethyl)-1H-pyrazol-4-yl]imidazo[1,2-a]pyrazin-8-yl]amino]phenyl]methanone]	0.926 µM
CCc1cc(Nc2nccn3c(-c4cn(CC(F)F)nc4C(F)(F)F)cnc23)ccc1C(=O)N1CC2(CCN2)C1 [Example 564, (4-((3-(1-(2,2-difluoroethyl)-3-(trifluoromethyl)-1H-pyrazol-4-yl)imidazo[1,2-a]pyrazin-8-yl)amino)-2-ethylphenyl)(1,6-diazaspiro[3.3]heptan-6-yl)methanone formate]	0.58 µM
NCCCC[C@H](N)C(=O)NCCNC(=O)c1ccc(Nc2nccn3c(-c4c[nH]nc4C(F)(F)F)cnc23)cc1Cl [Example 224, 2-chloro-N-[2-[[(2S)-2,6-diaminohexanoyl]amino]ethyl]-4-[[3-[3-(trifluoromethyl)-1H-pyrazol-4-yl]imidazo[1,2-a]pyrazin-8-yl]amino]benzamide formate]	1.5 µM
CCc1cc(Nc2nccn3c(-c4cn(CC#N)nc4C(F)(F)F)cnc23)ccc1C(=O)NCC(=O)N[C@@H]1CCNC1 [Example 757, 4-[[3-[1-(cyanomethyl)-3-(trifluoromethyl)pyrazol-4-yl]imidazo[1,2-a]pyrazin-8-yl]amino]-2-ethyl-N-[2-oxo-2-[[(3R)-pyrrolidin-3-yl]amino]ethyl]benzamide formate]	0.689 µM
N#CCn1cc(-c2cnc3c(Nc4ccc(C(=O)N5CCN(C(=O)CCN)CC5)c(Cl)c4)nccn23)c(C(F)(F)F)n1 [Example 286, 2-[4-[8-[4-[4-(3-aminopropanoyl)piperazine-1-carbonyl]-3-chloroanilino]imidazo[1,2-a]pyrazin-3-yl]-3-(trifluoromethyl)pyrazol-1-yl]acetonitrile formate]	0.226 µM
Cc1cc(Nc2nccn3c(-c4cn(CC#N)nc4C(F)(F)F)cnc23)cc(F)c1C(=O)N[C@H](C)CNC(=O)CN [Example 689, (R)-N-(1-(2-aminoacetamido)propan-2-yl)-4-((3-(1-(cyanomethyl)-3-(trifluoromethyl)-1H-pyrazol-4-yl)imidazo[1,2-a]pyrazin-8-yl)amino)-2-fluoro-6-methylbenzamide formate]	0.351 µM
N[C@@H]1CCN(C(=O)N2CCN(C(=O)c3ccc(Nc4nccn5c(-c6c[nH]nc6C(F)(F)F)cnc45)cc3Cl)CC2)C1 [Example 326, [4-[(3R)-3-aminopyrrolidine-1-carbonyl]piperazin-1-yl]-[2-chloro-4-[[3-[3-(trifluoromethyl)-1H-pyrazol-4-yl]imidazo[1,2-a]pyrazin-8-yl]amino]phenyl]methanone formate]	0.135 µM
N#CCn1cc(-c2cnc3c(Nc4ccc(C(=O)N5CCN(C(=O)N[C@@H]6CCNC6)CC5)c(Cl)c4)nccn23)c(C(F)(F)F)n1 [Example 288, 4-[2-chloro-4-[[3-[1-(cyanomethyl)-3-(trifluoromethyl)pyrazol-4-yl]imidazo[1,2-a]pyrazin-8-yl]amino]benzoyl]-N-[(3R)-pyrrolidin-3-yl]piperazine-1-carboxamide formate]	0.233 µM
Cc1cc(Nc2nccn3c(-c4c[nH]nc4C(F)(F)F)cnc23)ccc1C(=O)N1CCN(C(=O)N[C@@H]2CCNC2)CC1 [Example 416, formic acid; 4-[2-methyl-4-[[3-[3-(trifluoromethyl)-1H-pyrazol-4-yl]imidazo[1,2-a]pyrazin-8-yl]amino]benzoyl]-N-[(3R)-pyrrolidin-3-yl]piperazine-1-carboxamide]	0.441 µM
Cc1cnc(Cn2cc(-c3cnc4c(Nc5ccc(C(=O)N6CCNCC6)c(Cl)c5)nccn34)c(C(F)(F)F)n2)nc1 [Example 160, [2-chloro-4-[[3-[1-[(5-methylpyrimidin-2-yl)methyl]-3-(trifluoromethyl)pyrazol-4-yl]imidazo[1,2-a]pyrazin-8-yl]amino]phenyl]-piperazin-1-ylmethanone formate]	0.63 µM
CCc1cc(Nc2nccn3c(-c4c[nH]nc4C(F)(F)F)cnc23)ccc1C(=O)NCCNC(=O)CCN [Example 220, N-[2-(3-aminopropanoylamino)ethyl]-2-ethyl-4-[[3-[3-(trifluoromethyl)-1H-pyrazol-4-yl]imidazo[1,2-a]pyrazin-8-yl]amino]benzamide formate]	0.51 µM
Cc1cc(Nc2nccn3c(-c4cn(CC#N)nc4C(F)(F)F)cnc23)cc(F)c1C(=O)N[C@H](C)CNC(=O)C1CCNCC1 [Example 741, (R)-N-(2-(4-((3-(1-(cyanomethyl)-3-(trifluoromethyl)-1H-pyrazol-4-yl)imidazo[1,2-a]pyrazin-8-yl)amino)-2-fluoro-6-methylbenzamido)propyl)piperidine-4-carboxamide formate]	0.53 µM

Same assay, conditions: Acinetobacter baumannii, ATCC17961, 16 h, strain ATCC 17961, OD600 growth over 16 h, read-out: A. baumannii ATCC 17961 IC90

Structure (SMILES)	IC90
N[C@@H]1CC[C@@H](NC(=O)c2ccc(Nc3nccn4c(-c5c[nH]nc5C(F)(F)F)cnc34)cc2Cl)C1 (racemic) [Example 407, 2-chloro-N-[rac-(1R,3R)-3-aminocyclopentyl]-4-[[3-[3-(trifluoromethyl)-1H-pyrazol-4-yl]imidazo[1,2-a]pyrazin-8-yl]amino]benzamide]	2.96 µM
CCc1cc(Nc2nccn3c(-c4cn(C5CCC5)nc4C(F)(F)F)cnc23)ccc1C(=O)NCCOCCN1CCOCC1 [Example 661, 4-((3-(1-cyclobutyl-3-(trifluoromethyl)-1H-pyrazol-4-yl)imidazo[1,2-a]pyrazin-8-yl)amino)-2-ethyl-N-(2-(2-morpholinoethoxy)ethyl) benzamide formate]	0.279 µM
NCCOCCNC(=O)c1ccc(Nc2nccn3c(-c4cn(CCF)nc4C(F)(F)F)cnc23)cc1Cl [Example 250, N-[2-(2-aminoethoxy)ethyl]-2-chloro-4-[[3-[1-(2-fluoroethyl)-3-(trifluoromethyl)pyrazol-4-yl]imidazo[1,2-a]pyrazin-8-yl]amino]benzamide]	0.084 µM
CCc1cc(Nc2nccn3c(-c4cn(CC(F)F)nc4C(F)(F)F)cnc23)ccc1C(=O)N[C@H](C)CN [Example 107, N-[(2R)-1-aminopropan-2-yl]-4-[[3-[1-(2,2-difluoroethyl)-3-(trifluoromethyl)pyrazol-4-yl]imidazo[1,2-a]pyrazin-8-yl]amino]-2-ethylbenzamide]	0.239 µM
C=CCn1cc(-c2cnc3c(Nc4cc(C)c(C(=O)N[C@H](C)CN)c(F)c4)nccn23)c(C(F)(F)F)n1 [Example 680, (R)-4-((3-(1-allyl-3-(trifluoromethyl)-1H-pyrazol-4-yl)imidazo[1,2-a]pyrazin-8-yl)amino)-N-(1-aminopropan-2-yl)-2-fluoro-6-methylbenzamide]	0.326 µM
CCc1cc(Nc2nccn3c(-c4c[nH]nc4C(F)(F)F)cnc23)ccc1C(=O)NCCOCCN1CCCC1 [Example 672, 2-ethyl-N-(2-(2-(pyrrolidin-1-yl)ethoxy)ethyl)-4-((3-(3-(trifluoromethyl)-1H-pyrazol-4-yl)imidazo[1,2-a]pyrazin-8-yl)amino)benzamide]	0.313 µM
CCc1cc(Nc2nccn3c(-c4cn(Cc5csc(C)n5)nc4C(F)(F)F)cnc23)ccc1C(=O)NCCCNCCCCNCCCN [Example 82, N-[3-[4-(3-aminopropylamino)butylamino]propyl]-2-ethyl-4-[[3-[1-[(2-methyl-1,3-thiazol-4-yl)methyl]-3-(trifluoromethyl)pyrazol-4-yl]imidazo[1,2-a]pyrazin-8 yl]amino]benzamide hydrochloride]	1.15 µM
Cc1cc(Nc2nccn3c(-c4cn(CC#N)nc4C(F)(F)F)cnc23)ccc1S(C)(=O)=NCCCN (stereo not shown) [Example 597, 2-[4-[8-[4-[N-(3-aminopropyl)-S-methyl-sulfonimidoyl]-3-methyl-anilino]imidazo[1,2-a]pyrazin-3-yl]-3-(trifluoromethyl)pyrazol-1-yl]acetonitrile]	0.179 µM
Cc1cc(Nc2nccn3c(-c4cn(CC(F)F)nc4C(F)(F)F)cnc23)cc(F)c1C(=O)NCCOCCN [Example 49, N-[2-(2-aminoethoxy)ethyl]-4-[[3-[1-(2,2-difluoroethyl)-3-(trifluoromethyl)pyrazol-4-yl]imidazo[1,2-a]pyrazin-8-yl]amino]-2-fluoro-6-methylbenzamide]	0.12 µM
CCc1cc(Nc2nccn3c(-c4cn(C(C)C)nc4C(F)(F)F)cnc23)ccc1C(=O)NCCOCCN [Example 27, N-[2-(2-aminoethoxy)ethyl]-2-ethyl-4-[[3-[1-propan-2-yl-3-(trifluoromethyl)pyrazol-4-yl]imidazo[1,2-a]pyrazin-8-yl]amino]benzamide hydrochloride]	0.306 µM
CNC(=O)c1ccc(Nc2nccn3c(-c4cn(CCCC#N)nc4C(F)(F)F)cnc23)cc1Cl [Example 359, 2-chloro-4-[[3-[1-(3-cyanopropyl)-3-(trifluoromethyl)pyrazol-4-yl]imidazo[1,2-a]pyrazin-8-yl]amino]-N-methylbenzamide]	0.303 µM

Same assay, conditions: strain ATCC 17961, OD600 growth over 16 h, read-out: A. baumannii ATCC 17961 IC90

Structure (SMILES)	IC90
C=CCn1cc(-c2cnc3c(Nc4ccc(C(=O)NCCOC[C@@H](C)N)c(CC)c4)nccn23)c(C(F)(F)F)n1 [Example 148, N-[2-[(2R)-2-aminopropoxy]ethyl]-2-ethyl-4-[[3-[1-prop-2-enyl-3-(trifluoromethyl)pyrazol-4-yl]imidazo[1,2-a]pyrazin-8-yl]amino]benzamide]	0.084 µM
Cc1cc(Nc2nccn3c(-c4cn(CC#N)nc4C(F)(F)F)cnc23)cc(F)c1C(=O)N[C@H](C)CNC(=O)[C@H]1C[C@@H](N)C1 [Example 709, N-((R)-1-((1s,3S)-3-aminocyclobutane-1-carboxamido)propan-2-yl)-4-((3-(1-(cyanomethyl)-3-(trifluoromethyl)-1H-pyrazol-4-yl)imidazo[1,2-a]pyrazin-8-yl)amino)-2-fluoro-6-methylbenzamide formate]	0.404 µM
